Measured values: patent US7829560B2, “1,4-disubstituted naphthalenes as inhibitors of P38 MAP kinase” (Arqule, Inc., priority 2004, dated 2010)
Values belong to the molecule of their own block, whether it stands above or below them.

Key:
p38α = target: T1, p38α (Homo sapiens, UniProt Q16539); assay: p38 MAP Kinase assay: inhibition of ATF2 phosphorylation, ELISA; assay type: biochemical; settings: for IC50: ATF2 phosphorylation, read-out: [ENZ] P38 ALPHA, IC50, ELISA; for inhibition at 10 µM: substrate ATF2, read-out: [ENZ] P38 ALPHA, PCT INH, ELISA (10 uM;ATF2) (Percent)
T1 construct: p38 MAP Kinases are recombinant human full-length proteins with an amino-terminal GST fusion; GST (N); purchased Upstate Biotechnology Inc; host or cells: E. coli
T1 sequence (Q16539 whole entry, the tested form may be a part): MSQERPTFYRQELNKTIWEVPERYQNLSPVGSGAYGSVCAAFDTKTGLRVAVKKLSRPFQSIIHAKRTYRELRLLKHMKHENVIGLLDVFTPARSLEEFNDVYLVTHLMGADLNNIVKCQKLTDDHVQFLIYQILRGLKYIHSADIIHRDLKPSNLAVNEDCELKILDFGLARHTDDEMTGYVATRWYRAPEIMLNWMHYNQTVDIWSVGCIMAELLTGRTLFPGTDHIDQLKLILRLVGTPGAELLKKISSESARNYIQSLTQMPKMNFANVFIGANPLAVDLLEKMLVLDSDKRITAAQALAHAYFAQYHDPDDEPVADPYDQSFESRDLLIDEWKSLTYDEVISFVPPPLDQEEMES
Outline: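 In vitro phosphorylation of ATF2 at Thr69 by recombinant human GST-p38 MAP kinase, read by anti-phospho-ATF2 ELISA at 450 nm. Enzyme and compound pre-incubated 15 min at RT, then 30 min reaction at 37 °C with 40 μM ATP and 1.25 μM ATF2; buffer with or without 1% HSA (Method II or I).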

[1] = system: TNFα release from THP-1 cells; assay: Inhibition of TNFα release from LPS-stimulated THP-1 cells, ELISA; assay type: cell-based; settings: Homo sapiens, THP-1, THP-1 cells, read-out: [CELL] THP-1, IC50, TNF ALPHA, ELISA
Outline: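 TNFα released into supernatant after 18 h of 10 μg/ml LPS stimulation was quantified by ELISA and IC50 taken as 50% reduction by non-linear regression. THP-1 cells (10^6/ml; medium with 10% FBS, serum-free or 1% HSA) saw compound for 30 min at 37 °C beforehand; final DMSO ≤0.5%.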

Structure (SMILES): O=C(Nc1ccc(OCCN2CCOCC2)c2ccccc12)c1cccc(-n2cccc2)c1 [Compound B57, N-[4-(2-Morpholin-4-yl-ethoxy)-naphthalen-1-yl]-3-pyrrol-1-yl-benzamide]
IC50 (p38α): 1.19 µM
IC50 [1]: 2.65 µM
melting point: 142 to 143 °C

Structure (SMILES): O=C(Nc1ccc(OCCN2CCOCC2)c2ccccc12)c1ccc2snnc2c1 [Compound B50, N-[4-(2-Morpholin-4-ylethoxy)-1-naphthyl]-1,2,3-benzothiadiazole-5-carboxamide]
IC50 (p38α): 1.24 µM
IC50 [1]: 9.18 µM
melting point: 188 to 190 °C

Structure (SMILES): CCC1CCC(Oc2cc(F)cc(C(=O)Nc3ccc(OCCN4CCOCC4)c4ccccc34)c2)CC1 (centres unmarked) [Compound B194, 3-[(4-Ethylcyclohexyl)oxy]-5-fluoro-N-[4-(2-morpholin-4-ylethoxy)-1-naphthyl]benzamide]
IC50 (p38α): 9.28 µM
IC50 [1]: > 10 µM
melting point: 102 to 105 °C

Structure (SMILES): O=C(Nc1ccc(OCCN2CCOCC2)c2ccccc12)c1cccc(N2CCOCC2)c1 [Compound B169, 3-Morpholin-4-yl-N-[4-(2-morpholin-4-yl-ethoxy)-naphthalen-1-yl]-benzamide]
inhibition at 10 µM (p38α): 77.5%
IC50 (p38α): 2.07 µM
IC50 [1]: 1.33 µM
melting point: 90 to 92 °C

Structure (SMILES): O=C(Nc1ccc(OCCCN2CCOCC2)c2ccccc12)c1cc(F)cc(N2CCCCC2)c1 [Compound B161, 3-Fluoro-N-[4-(3-morpholin-4-yl-propoxy)-naphthalen-1-yl]-5-piperidin-1-yl-benzamide]
inhibition at 10 µM (p38α): 84%
IC50 (p38α): 1.1 µM
IC50 [1]: > 10 µM
melting point: 70 to 72 °C

Next, values leading:

IC50 (p38α): 0.0271 µM
IC50 [1]: 0.275 µM
melting point: 92 to 94 °C
Structure (SMILES): COC(CN(C)c1nccc(Oc2ccc(NC(=O)c3cc(F)cc(N4CCOCC4)c3)c3ccccc23)n1)OC [Compound B351, N-[4-({2-[(2,2-Dimethoxyethyl)(methyl)amino]pyrimidin-4-yl}oxy)-1-naphthyl]-3-fluoro-5-morpholin-4-ylbenzamide]

IC50 (p38α): 0.0264 µM
IC50 [1]: 0.0371 µM
melting point: 118 to 120 °C
Structure (SMILES): O=C(Nc1ccc(Oc2ccnc(NC3CCCCC3)n2)c2ccccc12)c1cc(F)cc(N2CCCCC2)c1 [Compound B371, N-(4-{[2-(cyclohexylamino)pyrimidin-4-yl]oxy}-1-naphthyl)-3-fluoro-5-piperidin-1-ylbenzamide]

IC50 (p38α): 0.189 µM
IC50 [1]: 0.177 µM
melting point: 180 to 181 °C
Structure (SMILES): CSc1nccc(Oc2ccc(NC(=O)c3cc(F)cc(N4CCCC4)c3)c3ccccc23)n1 [Compound B264, 3-Fluoro-N-(4-{[2-(methylthio)pyrimidin-4-yl]oxy}-1-naphthyl)-5-pyrrolidin-1-ylbenzamide]

IC50 (p38α): 0.0325 µM
IC50 [1]: 0.518 µM
melting point: 97 to 98 °C
Structure (SMILES): C#CCN(C)c1nccc(Oc2ccc(NC(=O)c3cc(F)cc(N4CCOCC4)c3)c3ccccc23)n1 [Compound B352, 3-Fluoro-N-[4-({2-[methyl(prop-2-yn-1-yl)amino]pyrimidin-4-yl}oxy)-1-naphthyl]-5-morpholin-4-ylbenzamide]

IC50 (p38α): 0.102 µM
IC50 [1]: 0.538 µM
melting point: 155 to 156 °C
Structure (SMILES): CN(Cc1ccco1)c1nccc(Oc2ccc(NC(=O)c3cc(F)cc(N4CCCCC4)c3)c3ccccc23)n1 [Compound B418, 3-Fluoro-N-[4-({2-[(2-furylmethyl)(methyl)amino]pyrimidin-4-yl}oxy)-1-naphthyl]-5-piperidin-1-ylbenzamide]

IC50 (p38α): 0.0031 µM
IC50 [1]: 0.0768 µM
melting point: 112 to 114 °C
Structure (SMILES): O=C(Nc1ccc(Oc2ccnc(NCCN3CCOCC3)n2)c2ccccc12)c1cc(F)cc(N2CCOCC2)c1 [Compound B326, 3-Fluoro-5-morpholin-4-yl-N-[4-({2-[(2-morpholin-4-ylethyl)amino]pyrimidin-4-yl}oxy)-1-naphthyl]benzamide]
